What was measured:
[1] = test system: JAWSII cells; assay: IL-1β inhibition in stimulated JAWSII cells; format: cell-based, mouse; conditions: immune regulator alone, LPS+Alum stimulated, 24 hours
Description: JAWSII cells (mouse bone marrow cells) were recovery from liquid nitrogen and put into a water bath at 37° C. The cells were washed twice with the MEM media. The recovered cells were cultured in 10 mL cMEM (MEM+20% FBS+5 ng/mL rmGM-CSF) for 5-7 days. The cells were ready for use after 2 passages.
The cell supernatant was collected for further analysis.
Each supernatant noted above was centrifuged under 12000 rpm at 4° C. for 5 minutes. The level of IL-1β (an immune active biomarker) was measured following the ELISA procedure provided below.
15. Calculate the IL-1β concentration of tested subject by standard curve. Inhibition percentage (%) was calculated as the percentage of the reduction of IL-1β level of each tested sample as compared with the positive control (LPS+Alum) and the blank control.

[2] = test system: red blood cell suspension; assay: Hemolytic assay of formulations; format: cell-based, Mouse
Description: Mouse blood was collected and added with 800 μl of 15 mg/ml of EDTA to prevent the coagulation. It was centrifuged at 1,500 rpm for 15 min followed by discarding of the supernatant. The pellet was resuspended into 1 ml PBS, and centrifugated at 1,500 rpm for 15 min. The procedure was repeated for approximately 2 or 3 times until the supernatant became clear. The pellet containing red blood cells was resuspended with PBS at 1:10 to get 10% of red cell suspension after discarding supernatant, then further diluted into 2% with PBS. Five hundred microliters of 2% red blood cell suspension were mixed with 500 μl of different formulations, respectively, for a period of 180 minutes at 37° C. The hemolysis was recorded by a camera from the beginning to the end. After that, sample was centrifuged at 1,500 rpm for 2 min, the absorbance of supernatant was measured at OD405nm and the results were statistically analyzed.

Compound	inhibition (immune suppression) of IL-1β level [1]	hemolysis [2]
C=CC[C@@H]1/C=C(\C)C[C@H](C)C[C@H](OC)[C@H]2O[C@@](O)(C(=O)C(=O)N3CCCC[C@H]3C(=O)O[C@H](/C(C)=C/[C@@H]3CC[C@@H](O)[C@H](OC)C3)[C@H](C)[C@@H](O)CC1=O)[C@H](C)C[C@@H]2OC [FK506]	around 100%	
CC(O)CO (stereo not drawn) [propylene glycol]		Various degrees of hemolysis
CO[C@H]1C[C@@H]2CC[C@@H](C)[C@@](O)(O2)C(=O)C(=O)N2CCCC[C@H]2C(=O)O[C@H]([C@H](C)C[C@@H]2CC[C@@H](O)[C@H](OC)C2)CC(=O)[C@H](C)/C=C(\C)[C@@H](O)[C@@H](OC)C(=O)[C@H](C)C[C@H](C)/C=C/C=C/C=C/1C [rapamycin]	around 60%	

From patent US11666650B2, “Immune composition comprising respiratory syncytial virus (RSV) G polypeptide” (ADVACCINE (SUZHOU) BIOPHARMACEUTICALS CO. LTD., priority 2019, dated 2023)
